# Assay results: paper PMC6218799 (BioMed Research International, 2018)
# How the values were obtained:
# CYP2C9 [1] = test system: CYP2C9; design: method as in ref 44 = [44]; 44 Zhang Y. D. Liu X. Q. Guo Y. L. Effects of 20 active ingredients of traditional Chinese herbs on CYP2C9 activities in rat liver microsomes Journal of Third Military Medical University 2013 35 24 26; conditions: rat liver microsomes in vitro; cited from earlier work
# CYP3A4 [2] = conditions: healthy volunteers; cited from earlier work
# CYP2E1 = test system: CYP2E1; design: method as in ref 43 = [43]; 43 Du Y. Zhu R.-H. Su F.-L. Wang F. Liang H.-X. Li H.-D. Effect of oleanolic acid on CYP1A2, CYP2E1 and CYP3A4 activity in healthy subjects Chinese Pharmaceutical Journal 2008 43 4 300 303 2-s2.0-5304; conditions: healthy volunteers; cited from earlier work
# CYP1A2 [3] = test system: CYP1A2; design: method as in ref 43 = [43]; 43 Du Y. Zhu R.-H. Su F.-L. Wang F. Liang H.-X. Li H.-D. Effect of oleanolic acid on CYP1A2, CYP2E1 and CYP3A4 activity in healthy subjects Chinese Pharmaceutical Journal 2008 43 4 300 303 2-s2.0-5304; conditions: healthy volunteers; cited from earlier work
# CYP2C9 [4] = test system: CYP2C9; design: method as in ref 45 = [45]; 45 Han Y. L. Meng X. L. Li D. In Vitro Inhibition of Six Cytochrome P450 Isoforms in Human Liver Microsomes by Qingkailing Injection and Its Two Active Components(Baicalin and Geniposide) Chinese Phar; conditions: Han's research; cited from earlier work
# CYP3A4 [5] = test system: CYP3A4; design: method as in ref 45 = [45]; 45 Han Y. L. Meng X. L. Li D. In Vitro Inhibition of Six Cytochrome P450 Isoforms in Human Liver Microsomes by Qingkailing Injection and Its Two Active Components(Baicalin and Geniposide) Chinese Phar; conditions: Han's research; cited from earlier work
# CYP1A2 [6] = test system: CYP1A2; design: method as in ref 45 = [45]; 45 Han Y. L. Meng X. L. Li D. In Vitro Inhibition of Six Cytochrome P450 Isoforms in Human Liver Microsomes by Qingkailing Injection and Its Two Active Components(Baicalin and Geniposide) Chinese Phar; conditions: Han's research; cited from earlier work
# CYP2C19 [7] = test system: CYP2C19; design: method as in ref 45 = [45]; 45 Han Y. L. Meng X. L. Li D. In Vitro Inhibition of Six Cytochrome P450 Isoforms in Human Liver Microsomes by Qingkailing Injection and Its Two Active Components(Baicalin and Geniposide) Chinese Phar; conditions: Han's research; cited from earlier work
# CYP1A2 [8] = target: T1, CYP1A2 (Rattus norvegicus, UniProt P04799); experiment: Cocktail method in rats: pharmacokinetics of probe drug theophylline (CYP1A2 activity); type: in vivo; conditions: male, Wistar, plasma, iv, 10 mg/kg, theophylline 10 mg/kg iv
# T1 construct: from tissue; host or cells: whole animal, male Wistar rats (in vivo pharmacokinetics)
# T1 sequence (P04799 1-513): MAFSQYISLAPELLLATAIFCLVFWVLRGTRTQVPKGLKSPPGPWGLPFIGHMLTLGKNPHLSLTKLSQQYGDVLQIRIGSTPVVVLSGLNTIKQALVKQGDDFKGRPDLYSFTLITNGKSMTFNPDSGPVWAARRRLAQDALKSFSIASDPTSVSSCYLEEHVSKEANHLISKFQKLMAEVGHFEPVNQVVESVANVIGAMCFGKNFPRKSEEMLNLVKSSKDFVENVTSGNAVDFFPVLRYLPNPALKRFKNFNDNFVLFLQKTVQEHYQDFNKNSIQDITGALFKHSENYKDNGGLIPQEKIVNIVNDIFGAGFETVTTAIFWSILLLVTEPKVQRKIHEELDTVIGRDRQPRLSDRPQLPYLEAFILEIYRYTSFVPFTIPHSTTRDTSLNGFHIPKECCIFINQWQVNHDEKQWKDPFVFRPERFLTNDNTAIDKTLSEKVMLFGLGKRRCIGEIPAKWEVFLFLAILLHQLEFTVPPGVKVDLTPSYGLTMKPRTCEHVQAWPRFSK
# Method: (§1) UltiMate3000 HPLC equipped with diode array detector was used to analyze the compounds.
# (§2) Forty-eight male Wistar rats (220 ± 20 g) were randomly divided into two control groups, two Digeda groups, and two positive groups (n=8). […] The other groups were given the mixture of two probe drugs (omeprazole and midazolam were 10 mg/kg and 5 mg/kg) by intravenous injection.
# (§3) The samples were immediately centrifuged at 3500 r/min for 10 min, and 200 μL plasma was obtained from each sample.
# (§4) The plasma samples were extracted. In a 5 mL centrifuge tube, 100 μL of the IS working solution (0.1 mg/mL) was added to 200 uL of collected plasma sample followed by the addition of 2 mL of dichloromethane. After the tube was vortex-mixed for 5 min, the sample was centrifuged at 3500 r/min for 10 min. 1.2 mL of the organic phase was transferred into the other glass tube and was dried by nitrogen. The residue was redissolved with 200 μL methanol and then injected into the HPLC system for analysis. The concentration of probe drugs in plasma was measured by HPLC.
# (§5) Plasma probe drug concentration versus time data for each rat was analyzed by DAS software (version 3.0, Drug Clinical Research Center of Shanghai University of TCM and Shanghai BioGuider Medicinal Technology, Co. Ltd., China). The pharmacokinetic parameters of the Digeda group and control group probe drugs with the t-test were analyzed using SPSS 17.0 statistical software. p < 0.05 was considered statistically significant.
# CYP2C19 [9] = experiment: Cocktail method in rats: pharmacokinetics of probe drug omeprazole (CYP2C19 activity); type: in vivo; conditions: male, Wistar, omeprazole 10 mg/kg iv
# Method: as §1, §2, §3, §4, §5
# CYP3A4 [10] = experiment: Cocktail method in rats: pharmacokinetics of probe drug midazolam (CYP3A4 activity); conditions: male, Wistar, rat, plasma, iv, 5 mg/kg, midazolam 5 mg/kg iv; for AUC(0-t): AUC0~t; for AUC(0-inf): AUC0~∞; for clearance: Cl
# Method: as §1, §2, §3, §4, §5
# CYP2C19 [11] = conditions: in vivo; cited from earlier work
# [12] = Digeda group (Digeda-4 decoction 600 mg/kg ig 14 days)
# [13] = control group (saline ig 14 days)
# [14] = positive group (phenobarbital 50 mg/kg ip 7 days)
# [15] = positive group (phenobarbital 50 mg/kg ip 7 days), rat plasma
# [16] = rat, plasma, iv, 10 mg/kg, Digeda group (Digeda-4 decoction 600 mg/kg ig 14 days)
# [17] = rat, plasma, iv, 10 mg/kg, control group (saline ig 14 days)
# [18] = rat, plasma, iv, 10 mg/kg, positive group (phenobarbital 50 mg/kg ip 7 days)
smiles,measurement,setting,value
C=C[C@H]1[C@H](O[C@@H]2O[C@H](CO)[C@@H](O)[C@H](O)[C@H]2O)OC=C2C(=O)OCC[C@]21O [swertiamarin],effect on CYP2C9 activity,CYP2C9 [1],inhibitory effect
CC1(C)CC[C@]2(C(=O)O)CC[C@]3(C)C(=CC[C@@H]4[C@@]5(C)CC[C@H](O)C(C)(C)[C@@H]5CC[C@]43C)[C@@H]2C1 [Oleanolic acid],effect on CYP3A4,CYP3A4 [2],no effect
same,effect on CYP2E1 activity,CYP2E1,little inhibition
same,effect on CYP1A2 activity,CYP1A2 [3],can inhibit CYP1A2 activity significantly
COC(=O)C1=CO[C@@H](O[C@@H]2O[C@H](CO)[C@@H](O)[C@H](O)[C@H]2O)[C@@H]2C(CO)=CC[C@H]12 [geniposide],inhibitory effect on CYP2C9,CYP2C9 [4],no inhibitory effect
same,inhibitory effect on CYP3A4,CYP3A4 [5],no inhibitory effect
same,inhibitory effect on CYP1A2,CYP1A2 [6],no inhibitory effect
same,inhibitory effect on CYP2C19,CYP2C19 [7],no inhibitory effect
"Cn1c(=O)c2[nH]cnc2n(C)c1=O [Theophylline, theophylline]",AUC(0-inf),CYP1A2 [8]; [12],569000 ± 142000 ng·h/mL
same,AUC(0-t),CYP1A2 [8]; [12],299000 ± 67000 ng·h/mL
same,Cmax,CYP1A2 [8]; [12],30700 ± 5450 ng/mL
same,clearance,CYP1A2 [8]; [12],0.333 mL/min/kg
same,half-life,CYP1A2 [8]; [12],835 ± 160 min
same,AUC(0-inf),CYP1A2 [8]; [13],326000 ± 76900 ng·h/mL
same,AUC(0-t),CYP1A2 [8]; [13],206000 ± 37100 ng·h/mL
same,Cmax,CYP1A2 [8]; [13],31800 ± 5610 ng/mL
same,clearance,CYP1A2 [8]; [13],0.55 mL/min/kg
same,half-life,CYP1A2 [8]; [13],402 ± 97.5 min
same,AUC(0-inf),CYP1A2 [8]; [14],118000 ± 21400 ng·h/mL
same,AUC(0-t),CYP1A2 [8]; [14],71900 ± 15400 ng·h/mL
same,Cmax,CYP1A2 [8]; [14],30000 ± 5180 ng/mL
same,clearance,CYP1A2 [8]; [14],1.02 mL/min/kg
same,half-life,CYP1A2 [8]; [14],148 ± 21.5 min
"COc1ccc2[nH]c([S+]([O-])Cc3ncc(C)c(OC)c3C)nc2c1 (stereo not drawn) [Omeprazole, omeprazole]",clearance,CYP2C19 [9]; [15],10.2 mL/min/kg
same,half-life,CYP2C19 [9]; [15],7.08 ± 1.2 min
same,AUC(0-inf),CYP2C19 [9]; [16],14200 ± 2610 ng·h/mL
same,AUC(0-t),CYP2C19 [9]; [16],13300 ± 2630 ng·h/mL
same,Cmax,CYP2C19 [9]; [16],38600 ± 6690 ng/mL
same,clearance,CYP2C19 [9]; [16],4.9 mL/min/kg
same,half-life,CYP2C19 [9]; [16],16.9 ± 2.76 min
same,AUC(0-inf),CYP2C19 [9]; [17],7280 ± 1310 ng·h/mL
same,AUC(0-t),CYP2C19 [9]; [17],6920 ± 1390 ng·h/mL
same,Cmax,CYP2C19 [9]; [17],20900 ± 3710 ng/mL
same,clearance,CYP2C19 [9]; [17],8 mL/min/kg
same,half-life,CYP2C19 [9]; [17],9.78 ± 1.92 min
same,AUC(0-inf),CYP2C19 [9]; [18],5340 ± 993 ng·h/mL
same,AUC(0-t),CYP2C19 [9]; [18],4980 ± 845 ng·h/mL
same,Cmax,CYP2C19 [9]; [18],16900 ± 2630 ng/mL
"Cc1ncc2n1-c1ccc(Cl)cc1C(c1ccccc1F)=NC2 [Midazolam, midazolam]",AUC(0-t),CYP3A4 [10]; [12],1170 ± 209 ng·h/mL
same,AUC(0-t),CYP3A4 [10]; [13],881 ± 151 ng·h/mL
same,AUC(0-t),CYP3A4 [10]; [14],653 ± 95 ng·h/mL
same,AUC(0-inf),CYP3A4 [10]; [12],1360 ± 309 ng·h/mL
same,AUC(0-inf),CYP3A4 [10]; [13],928 ± 157 ng·h/mL
same,AUC(0-inf),CYP3A4 [10]; [14],711 ± 125 ng·h/mL
same,clearance,CYP3A4 [10]; [12],69.7 mL/min/kg
same,clearance,CYP3A4 [10]; [13],104 mL/min/kg
same,clearance,CYP3A4 [10]; [14],115 mL/min/kg
same,Cmax,CYP3A4 [10]; [12],2680 ± 509 ng/mL
same,Cmax,CYP3A4 [10]; [13],2900 ± 491 ng/mL
same,Cmax,CYP3A4 [10]; [14],2560 ± 507 ng/mL
same,half-life,"CYP3A4 [10]; T1/2, Digeda group (Digeda-4 decoction 600 mg/kg ig 14 days)",11.9 ± 1.92 min
same,half-life,"CYP3A4 [10]; T1/2, control group (saline ig 14 days)",8.64 ± 1.8 min
same,half-life,"CYP3A4 [10]; T1/2, positive group (phenobarbital 50 mg/kg ip 7 days)",6.3 ± 0.96 min
COc1cc(C(=O)O[C@H]2[C@@H]3C=CO[C@@H](O[C@@H]4O[C@H](CO)[C@@H](O)[C@H](O)[C@H]4O)[C@@H]3[C@@]3(CO)O[C@@H]23)ccc1O [picroside II],effect on the activity of CYP2C19,CYP2C19 [11],inhibitory effect
